The text below walks through data of patent publication US12187713B2, “Immunomodulators, compositions and methods thereof” (Betta Pharmaceuticals Co., Ltd, priority 2019, dated 2025).

PD-1/PD-L1, sequence (Q9NZQ7 19-238): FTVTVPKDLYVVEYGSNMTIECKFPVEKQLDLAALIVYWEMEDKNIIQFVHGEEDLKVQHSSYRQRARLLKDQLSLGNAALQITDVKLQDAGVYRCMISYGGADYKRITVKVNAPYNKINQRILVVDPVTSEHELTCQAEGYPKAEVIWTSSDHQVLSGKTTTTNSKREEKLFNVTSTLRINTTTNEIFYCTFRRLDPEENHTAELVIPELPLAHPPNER

In one assay the target is PD-1/PD-L1 (Homo sapiens (Human), UniProt Q9NZQ7). The assay can be described thus: PD-1/PD-L1 Binding Assay (Alphascreen). The note with it: numeric values. The method, then:
PD-1/PD-L1 Binding Assay (Alphascreen)
The assays were conducted in a standard black 384-well polystyrene plate with a final volume of 20 μL. Inhibitors were first serially diluted in DMSO and then added to the plate wells before the addition of other reaction components. The final concentration of DMSO in the assay was […]. Add 100 nL/well of compound to the 384 reaction plate (6008280, PerkinElmer) with Echo and centrifuge at 1000 rpm for 1 minute. Add 5 μL/well 4×PD-L1 solutions to the 384 reaction plate, centrifuge at 1000 rpm for 1 minute, and add 5 μL/well 4×PD-1 solutions, centrifuge at 1000 rpm for 1 minute, and incubate at 25° C. for 15 minutes. The concentrations of the compounds were 300, 100, 33.33, 11.11, 3.70, 1.23, 0.41, 0.137, 0.046, 0.015, 0 nM, respectively. Add 10 μL/well 2× Anti-6×His AlphaLISA Acceptor beads and Streptavidin Donor beads solution (PerkinElmer-AL356F) to the above 384 reaction plate, centrifuge at 1000 rpm for 1 minute, and incubate at 25° C. in the dark for 120 minutes. Read the AlphaLISA signal value using the Envision Reader. IC50 determination was performed by fitting the curve of percent control activity versus the log of the inhibitor concentration using the GraphPad Prism 8.0 software.
Regarding `CCN(CC)C1CN(Cc2cc3nc(-c4cccc(-c5cccc(-c6nc7cc(CN8CCC[C@H]8C(=O)O)c(OC(F)F)cc7o6)c5C)c4C)oc3cc2OC(F)F)C1` [Example 68, ((2-(3′-(5-((3-(diethylamino)azetidin-1-yl)methyl)-6-(difluoromethoxy)benzo[d]oxazol-2-yl)-2,2′-dimethyl-[1,1′-biphenyl]-3-yl)-6-(difluoromethoxy)benzo[d]oxazol-5-yl)methyl)-L-proline], the IC50 (usually the concentration needed to halve the response being measured) amounted to 2.4 nM. Turning to `Cc1c(-c2nc3cc(CN4CC(C(C)(C)O)C4)c(OC(F)F)cc3o2)cccc1-c1cccc(-c2nc3cc(CN4CCC[C@H]4C(=O)O)c(OC(F)F)cc3o2)c1C` [Example 69, ((6-(difluoromethoxy)-2-(3′-(6-(difluoromethoxy)-5-((3-(2-hydroxypropan-2-yl)azetidin-1-yl)methyl)benzo[d]oxazol-2-yl)-2,2′-dimethyl-[1,1′-biphenyl]-3-yl)benzo[d]oxazol-5-yl)methyl)-L-proline], the IC50 worked out at 0.49 nM. Same read-out and setting: with `Cc1c(-c2nc3cc(CN4CC5CC4C5)c(OC(F)F)cc3o2)cccc1-c1cccc(-c2nc3cc(CN4CCC[C@H]4C(=O)O)c(OC(F)F)cc3o2)c1C` [Example 71, ((2-(3′-(5-((2-azabicyclo[2.1.1]hexan-2-yl)methyl)-6-(difluoromethoxy)benzo[d]oxazol-2-yl)-2,2′-dimethyl-[1,1′-biphenyl]-3-yl)-6-(difluoromethoxy)benzo[d]oxazol-5-yl)methyl)-L-proline] the figure was 0.37 nM. Same read-out and setting: then `Cc1c(-c2nc3cc(CNCC4(CO)CC(F)(F)C4)c(OC(F)F)cc3o2)cccc1-c1cccc(-c2nc3cc(CN4CCC[C@H]4C(=O)O)c(OC(F)F)cc3o2)c1C` [Example 73, ((2-(3′-(5-((((3,3-difluoro-1-(hydroxymethyl)cyclobutyl)methyl)amino)methyl)-6-(difluoromethoxy)benzo[d]oxazol-2-yl)-2,2′-dimethyl-[1,1′-biphenyl]-3-yl)-6-(difluoromethoxy)benzo[d]oxazol-5-yl)methyl)-L-proline], with 0.42 nM; and `Cc1c(-c2nc3cc(CN4CC5CC(=O)CC4C5)c(OC(F)F)cc3o2)cccc1-c1cccc(-c2nc3cc(CN4CCC[C@H]4C(=O)O)c(OC(F)F)cc3o2)c1C` (stereo partly drawn) [Example 75, ((6-(difluoromethoxy)-2-(3′-(6-(difluoromethoxy)-5-((3-oxo-6-azabicyclo [3.2.1]octan-6-yl)methyl)benzo[d]oxazol-2-yl)-2,2′-dimethyl-[1,1′-biphenyl]-3-yl)benzo[d]oxazol-5-yl)methyl)-L-proline], with 10 nM. The compound `Cc1c(-c2nc3cc(CN4CC5(C4)CC5(F)F)c(OC(F)F)cc3o2)cccc1-c1cccc(-c2nc3cc(CN4CCC[C@H]4C(=O)O)c(OC(F)F)cc3o2)c1C` [Example 76, ((2-(3′-(5-((1,1-difluoro-5-azaspiro[2.3]hexan-5-yl)methyl)-6-(difluoromethoxy)benzo[d]oxazol-2-yl)-2,2′-dimethyl-[1,1′-biphenyl]-3-yl)-6-(difluoromethoxy)benzo[d]oxazol-5-yl)methyl)-L-proline] had a 50% inhibitory concentration (IC50) of 32 nM. Compound `Cc1c(-c2nc3cc(CN4CCC(C)(CO)C4)c(OC(F)F)cc3o2)cccc1-c1cccc(-c2nc3cc(CN4CCC[C@H]4C(=O)O)c(OC(F)F)cc3o2)c1C` (stereo partly drawn) [Example 77, ((6-(difluoromethoxy)-2-(3′-(6-(difluoromethoxy)-5-((3-(hydroxymethyl)-3-methylpyrrolidin-1-yl)methyl)benzo[d]oxazol-2-yl)-2,2′-dimethyl-[1,1′-biphenyl]-3-yl)benzo[d]oxazol-5-yl)methyl)-L-proline] gave an IC50 of 1.2 nM.

Staying with this assay, now noted: range symbols.
Take `Cc1c(-c2nc3cc(CN4CCC4C)c(OC(F)F)cc3o2)cccc1-c1cccc(-c2nc3cc(CN4CCC[C@H]4C(=O)O)c(OC(F)F)cc3o2)c1C` (stereo partly drawn) [Example 60, ((6-(difluoromethoxy)-2-(3′-(6-(difluoromethoxy)-5-((2-methylazetidin-1-yl)methyl)benzo[d]oxazol-2-yl)-2,2′-dimethyl-[1,1′-biphenyl]-3-yl)benzo[d]oxazol-5-yl)methyl)-L-proline]: the IC50 is 0.1 to 5 nM.
